Laboratory results: patent US4356183A, “Antihypertensive 4-thiazolidinecarboxylic acids (pyridyl derivatives)” (Santen Pharmaceutical Co., Ltd., priority 1978, dated 1982)
Like-named read-outs stand apart in the source and are kept apart here.

How the values were obtained:
[1] = tested on: contractile response to bradykinin (isolated guinea pig ileum); experiment: Augmentation of contractile response of isolated guinea pig ileum to bradykinin; assay type: cell-based; details: Cavia porcellus, bradykinin 0.005 μg/ml; compound added 5 min before; 30° C.; read-out: Bradykinin AC50 (50% augmentation of bradykinin activity inducing the contraction of guinea pig ileum)
Protocol: (§1) Isolated guinea pig ileum was suspended in the organ bath containing 20 ml of Tyrode's solution of 30° C. gassed with 95% O2 +5% CO2. The contraction induced by the addition of angiotensin I (0.1 μg/ml) at intervals of 10 minutes was recorded on a recticorder (Nihon Koden) for 90 seconds using FD pick up (ST-1T-H, Nihon Koden).
(§2) The test compounds were added to the bath 5 minutes before the addition of angiotensin I.
From the fact that kininase II, which destroys bradykinin having contractive action on isolated guinea pig ileum, is thought to be identical with angiotensin I-converting enzyme, augmentation of the contractile response to bradykinin by test compounds was examined by using bradykinin (0.005 μg/ml) in place of angiotensin I according to the above mentioned method.

[2] = tested on: contractile response of isolated guinea pig ileum to angiotensin I; experiment: Inhibition of contractile response of isolated guinea pig ileum to angiotensin I; assay type: cell-based; details: Cavia porcellus, angiotensin I 0.1 μg/ml; compound added 5 min before; 30° C.; read-out: Angiotensin I IC50 (50% inhibition of angiotensin I activity inducing the contraction of guinea pig ileum)
From the text: As the method of measurement of angiotensin I-converting enzyme activity, bioassay for the contractile response of isolated smooth muscle or the pressor response of normal animals and biochemical assay for the enzyme isolated from lung or other organs of animals are known. The former is found more advantageous than the latter for the examination of the convertion of angiotensin I to angiotensin II in vivo.
In the present study, therefore, we adopted the bioassay for contractile response of isolated guinea pig ileum to angiotensin I.
(§3) Measurement of inhibitory activity of angiotensin I-converting enzyme
as §1, §2
The inhibitory activity of angiotensin I-converting enzyme was calculated by the following formula. [formula] A: contractile intensity of angiotensin I before addition of the compound B: contractile intensity of angiotensin I after addition of the compound

[3] = Acute toxicity test; details: rat, in vivo
Protocol: The male ddy-SLC strain […] (4 weeks of age, weighing 19-21 g) were placed in a breeding room of constant temperature and humidity (23°±1° C., 55±5%) and fed freely pellet diet (CE-2, Clea Japan Inc.) and water ad. libitum for a week. The rats showing the normal growth were selected for the experiment.
Test compounds are suspended in 0.5% tragacanth solution (p.o.) or dissolved in distilled water (i.v., i.p.), and administered in a dose of 0.5 ml/20 g body weight.

[4] = tested on: pressor response to angiotensin I; experiment: Inhibition of pressor response to angiotensin I in rats after oral administration; assay type: in vivo, rat (male Wistar); details: angiotensin I 300 ng/kg i.v.
Protocol: Male Wistar strain rats weighing about 200-300 g were used.
Under ether anesthesia, polyethylene cannulae are inserted into carotid arthery and jugular vein. The cannula to carotid artery is connected to an electric transducer, while the cannula to jugular vein is connected to an apparatus for continuous infusion. After the complete recovery from anesthesia, angiotensin I is infused intravenously in a dose of 300 ng/kg by the apparatus for continuous infusion, and the pressor response is recorded by polygraph (Nihon Koden, RM-150).
The compounds of this invention suspended in 0.5% tragacanth solution are administered orally in a dose of 0.3 ml per 100 g of body weight, and the pressor response to angiotensin I infused intravenously is measured with time.
The inhibitory activity of the compounds against angiotensin I-converting enzyme is expressed as the percent inhibition of pressor response to angiotensin I.

[5] = molecular target: T1, angiotensin I-converting enzyme (Oryctolagus cuniculus, UniProt P12822); experiment: Inhibition of angiotensin I-converting enzyme by spectrophotometry (HHL substrate); assay type: biochemical; details: enzyme from rabbit lung; 5 mM HHL; pH 8.3; 37° C., 30 min
T1 construct: angiotensin I-converting enzyme extracted from rabbit lung; from tissue; host or cells: rabbit lung
T1 sequence (P12822 34-1310): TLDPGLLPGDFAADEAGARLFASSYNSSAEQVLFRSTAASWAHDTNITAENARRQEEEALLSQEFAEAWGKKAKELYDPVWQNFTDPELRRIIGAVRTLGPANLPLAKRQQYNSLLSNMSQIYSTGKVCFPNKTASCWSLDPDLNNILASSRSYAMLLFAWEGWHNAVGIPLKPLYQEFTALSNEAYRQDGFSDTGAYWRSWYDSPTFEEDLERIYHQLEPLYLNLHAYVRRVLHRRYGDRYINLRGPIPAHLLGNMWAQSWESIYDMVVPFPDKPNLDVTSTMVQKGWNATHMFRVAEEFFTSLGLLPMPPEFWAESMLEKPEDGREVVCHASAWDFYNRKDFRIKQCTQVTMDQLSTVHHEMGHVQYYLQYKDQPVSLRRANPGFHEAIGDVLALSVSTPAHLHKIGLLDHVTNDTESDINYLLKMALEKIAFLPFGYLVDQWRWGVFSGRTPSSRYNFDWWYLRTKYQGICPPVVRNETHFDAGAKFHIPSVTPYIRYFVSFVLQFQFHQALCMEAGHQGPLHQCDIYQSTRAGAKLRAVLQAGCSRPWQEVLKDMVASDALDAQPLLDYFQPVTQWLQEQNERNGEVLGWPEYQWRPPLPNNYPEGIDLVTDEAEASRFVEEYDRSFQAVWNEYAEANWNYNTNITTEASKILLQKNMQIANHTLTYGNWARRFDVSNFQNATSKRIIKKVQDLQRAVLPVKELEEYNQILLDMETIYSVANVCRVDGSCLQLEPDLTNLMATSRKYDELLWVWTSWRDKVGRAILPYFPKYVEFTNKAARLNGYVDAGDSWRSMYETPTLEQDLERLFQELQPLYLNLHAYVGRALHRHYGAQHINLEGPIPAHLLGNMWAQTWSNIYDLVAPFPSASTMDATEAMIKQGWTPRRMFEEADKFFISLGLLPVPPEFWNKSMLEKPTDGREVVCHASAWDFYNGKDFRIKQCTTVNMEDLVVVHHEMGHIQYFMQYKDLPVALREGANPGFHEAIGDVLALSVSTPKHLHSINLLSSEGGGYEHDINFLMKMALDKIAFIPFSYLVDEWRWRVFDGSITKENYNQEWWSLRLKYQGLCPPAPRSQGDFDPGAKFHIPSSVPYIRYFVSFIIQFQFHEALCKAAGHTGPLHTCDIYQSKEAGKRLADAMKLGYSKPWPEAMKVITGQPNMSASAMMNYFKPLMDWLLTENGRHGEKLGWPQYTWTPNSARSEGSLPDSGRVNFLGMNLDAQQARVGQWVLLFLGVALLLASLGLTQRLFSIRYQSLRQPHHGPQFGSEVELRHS
Protocol: That is, the absorbance of hippuric acid was measured, which is liberated by incubating hippuryl-L-histidyl-L-leucine (HHL) as substrate in the presence of angiotensin I-converting enzyme extracted from rabbit lung.
as §3
The reaction mixture is as follows:
100 mM phosphate buffer (pH 8.3)
10^-3 ~10^-9 M enzyme inhibitor
0.25 ml of the above mixture was incubated at 37° C. for 30 minutes and the reaction was stopped by adding 0.25 ml of 1 N hydrochloric acid. To this solution, 1.5 ml of ethyl acetate was added in order to extract hippuric acid. 1.0 ml of ethyl acetate layer was collected and evaporated to dryness, and the residue obtained was dissolved in 1.0 ml of water.
The inhibitory activity of angiotensin I-converting enzyme was calculated by the following formula: [formula]

Structure (SMILES) | AC50 [1] | IC50 [2] | LD50 ([3]; po, suspended in 0.5% tragacanth solution, read-out: LD50 p.o.) | Inhibition (%) of pressor response to angiotensin I, 5 min ([4]; 5 min, dose: 3, 45, 49 1.8 mg/kg, 4, 46 1.3, 50 1.4, 76 2.0, 77 1.5) | Inhibition (%) of pressor response to angiotensin I, 15 min ([4]; 15 min, dose: 3, 45, 49 1.8 mg/kg, 4, 46 1.3, 50 1.4, 76 2.0, 77 1.5) | Inhibition (%) of pressor response to angiotensin I, 25 min ([4]; 25 min, dose: 3, 45, 49 1.8 mg/kg, 4, 46 1.3, 50 1.4, 76 2.0, 77 1.5) | Inhibition (%) of pressor response to angiotensin I, 35 min ([4]; 35 min, dose: 3, 45, 49 1.8 mg/kg, 4, 46 1.3, 50 1.4, 76 2.0, 77 1.5) | Inhibition (%) of pressor response to angiotensin I, 45 min ([4]; 45 min, dose: 3, 45, 49 1.8 mg/kg, 4, 46 1.3, 50 1.4, 76 2.0, 77 1.5) | Inhibition (%) of pressor response to angiotensin I, 55 min ([4]; 55 min, dose: 3, 45, 49 1.8 mg/kg, 4, 46 1.3, 50 1.4, 76 2.0, 77 1.5) | Inhibition (%) of pressor response to angiotensin I, 65 min ([4]; 65 min, dose: 3, 45, 49 1.8 mg/kg, 4, 46 1.3, 50 1.4, 76 2.0, 77 1.5) | Inhibition (%) of pressor response to angiotensin I, 75 min ([4]; 75 min, dose: 3, 45, 49 1.8 mg/kg, 4, 46 1.3, 50 1.4, 76 2.0, 77 1.5) | Inhibition (%) of pressor response to angiotensin I, 85 min ([4]; 85 min, dose: 3, 45, 49 1.8 mg/kg, 4, 46 1.3, 50 1.4, 76 2.0, 77 1.5) | Inhibition (%) of pressor response to angiotensin I, 95 min ([4]; 95 min, dose: 45, 49 1.8 mg/kg, 4, 46 1.3, 50 1.4, 76 2.0, 77 1.5) | Inhibition (%) of pressor response to angiotensin I, 105 min ([4]; 105 min, dose: 45, 49 1.8 mg/kg, 46 1.3, 50 1.4, 76 2.0, 77 1.5) | Inhibition (%) of pressor response to angiotensin I, 115 min ([4]; 115 min, dose: 45, 49 1.8 mg/kg, 46 1.3, 50 1.4, 76 2.0, 77 1.5) | LD50 ([3]; ip, dissolved in distilled water, pH 7, read-out: LD i.p.) | IC50 [5]
O=C(O)[C@@H]1CSC(c2ccccc2O)N1C(=O)CCS (stereo partly drawn) [Compound 46, (4R)-2-(2-Hydroxyphenyl)-3-(3-mercaptopropanoyl)-4-thiazolidinecarboxylic acid] | 0.0003 µM | 0.019 µM | > 10000 mg/kg | 53.3% | 62.9% | 64.7% | 63.7% | 54.0% | 49.3% | 47.7% | 38.8% | 34.0% | 30.0% | 30.0% | 31.0% |  | 
C[C@H](CS)C(=O)N1C(c2ccccc2)SC[C@H]1C(=O)O (stereo partly shown) [Compound 18] | 0.0031 µM | 0.19 µM |  |  |  |  |  |  |  |  |  |  |  |  |  | > 1000 mg/kg | 0.06 µM
